Values of other authors as cited in US20020013320A1, “Use of growth hormone secretagogues to treat systemic lupus erythematosus and inflammatory bowel disease” (priority 2000, published 2002).
Where a SMILES comes first, the peptide text is derived from it. [ ]: non-standard residue; d: D form. d2Nal = N[C@H](Cc1ccc2ccccc2c1)C(=O)O; Aib = CC(C)(N)C(=O)O

What was measured:
[1] = adult female rats
[2] = canines during remobilization
[3] = oral treatment, obese young males

| Molecule | bone mass [1] | levels of serum insulin-like growth factor-1 [2] | size and strength of the quadriceps muscle [2] | markers of bone formation and bone resorption [3] |
| --- | --- | --- | --- | --- |
| CC(C)(N)C(=O)N[C@@H](Cc1c[nH]cn1)C(=O)N[C@H](Cc1ccc2ccccc2c1)C(=O)N[C@H](Cc1ccccc1)C(=O)N[C@@H](CCCCN)C(N)=O [Ipamorelin] (H-[Aib]H[d2Nal][dF]K-NH2) | have the capacity to increase bone mass | – | – | – |
| CC(C)(N)C(=O)N[C@H](COCc1ccccc1)C(=O)N1CCC2(CC1)CN(S(C)(=O)=O)c1ccccc12 [MK-0677] | – | elevated | increased | increases |
| GHRP-6 | have the capacity to increase bone mass | – | – | – |
